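Each compound was tested at five concentrations against cells in 96-well plates for 48 hours. GI50 marks 50% less growth. TGI: total growth inhibition.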
Legend:
Assay in all cases: NCI anticancer screen, dose series, 48 h
EKVX NSCLC = system: EKVX NSCLC
SF-295 CNS = system: SF-295 CNS
COLO 205 colon = system: COLO 205 colon
HT29 colon = system: HT29 colon
SNB-75 CNS = system: SNB-75 CNS
NCI/ADR-RES ovarian = system: NCI/ADR-RES ovarian
LOX IMVI melanoma = system: LOX IMVI melanoma
SN12C renal = system: SN12C renal
ACHN renal = system: ACHN renal
CCRF-CEM leukemia = system: CCRF-CEM leukemia

SMILES | TGI (EKVX NSCLC) | TGI (SF-295 CNS) | TGI (COLO 205 colon) | TGI (HT29 colon) | TGI (SNB-75 CNS) | TGI (NCI/ADR-RES ovarian) | TGI (LOX IMVI melanoma) | TGI (SN12C renal) | TGI (ACHN renal) | TGI (CCRF-CEM leukemia) | GI50 (EKVX NSCLC) | GI50 (COLO 205 colon) | GI50 (HT29 colon) | GI50 (SNB-75 CNS) | GI50 (NCI/ADR-RES ovarian) | GI50 (LOX IMVI melanoma) | GI50 (SN12C renal) | GI50 (ACHN renal) | GI50 (CCRF-CEM leukemia) | GI50 (SF-295 CNS)
CC(C)(C)[Si](C)(C)Oc1ccc(C2CNC(=O)C23CCC(=O)N3Cc2ccccc2)cc1 (stereo not given) | 22.4 µM | 30.6 µM | 25.3 µM | 24.8 µM | 32.1 µM | 26.7 µM | 41.2 µM | 35.9 µM | 30.9 µM | > 100 µM | – | – | – | – | – | – | – | – | – | –
NCCCn1c2c(c3ccc([N+](=O)[O-])cc3c1=O)C(=O)c1ccccc1-2 | 1.69 µM | – | 3.82 µM | 1.14 µM | 2.67 µM | 2.41 µM | 0.225 µM | 0.16 µM | 0.0885 µM | > 50 µM | 0.317 µM | 0.33 µM | 0.0785 µM | 0.835 µM | 0.427 µM | 0.0173 µM | 0.0297 µM | 0.0198 µM | 0.135 µM | –
CC(=O)NNc1nc(-c2ccc([N+](=O)[O-])cc2)c(C#N)c(=O)n1C | > 100 µM | > 100 µM | > 100 µM | > 100 µM | 54.9 µM | > 100 µM | 41.3 µM | > 100 µM | > 100 µM | > 100 µM | – | – | – | – | – | – | – | – | – | –
COc1cc(C2CC(c3cccc(Nc4ccncc4)c3)=NN2c2ccc(Cl)cc2)cc(OC)c1OC (stereo not given) | 2.88 µM | 3.05 µM | 4.79 µM | 4.82 µM | 2.85 µM | – | – | 2.95 µM | 2.88 µM | 6.71 µM | 1.46 µM | 2.12 µM | 1.87 µM | 1.28 µM | – | – | 1.54 µM | 1.54 µM | 2.39 µM | 1.68 µM
CCOC(=O)c1c2c(n(Cc3ccccc3)c1C)C(=O)C(=O)c1ccccc1-2 | 1.74 µM | 0.984 µM | 1.69 µM | – | 2.69 µM | > 100 µM | 0.482 µM | 0.333 µM | 1.92 µM | – | – | – | – | – | – | – | – | – | – | –
Oc1cn(-c2ccc(Cl)cc2)nc1-c1n[nH]c(=S)n1-c1ccccc1 | 82.1 µM | 19.8 µM | 54.9 µM | 44 µM | > 100 µM | 14.1 µM | – | > 100 µM | > 100 µM | – | – | – | – | – | – | – | – | – | – | –
Cc1cc2c(cc1C(=O)c1ccc(N)cc1)OCO2 | > 100 µM | 86 µM | 41.5 µM | 61.3 µM | – | 87.7 µM | – | > 100 µM | > 100 µM | > 100 µM | – | – | – | – | – | – | – | – | – | –
CN(C)C(=O)/C=C/c1c[nH]c(=O)[nH]c1=O | > 281 µM | > 500 µM | > 500 µM | > 500 µM | > 500 µM | > 500 µM | > 500 µM | > 500 µM | – | > 500 µM | – | – | – | – | – | – | – | – | – | –
COc1ccc(-c2nc3ncccn3c2-c2ccc(SC)cc2)cc1 | – | 3 µM | 3.31 µM | 28.1 µM | > 100 µM | 5.24 µM | 80.4 µM | > 100 µM | 41 µM | > 100 µM | – | – | – | – | – | – | – | – | – | –
COc1ccc2c(c1)CCCN2CCCCCCCCCCN(CCC(C)C)CCC(C)C | 20 µM | 27.4 µM | 26.6 µM | 18 µM | – | – | 29.1 µM | – | 22.8 µM | 32.9 µM | – | – | – | – | – | – | – | – | – | –
NCCc1cc(O)c(O)cc1O | 65.9 µM | 49.3 µM | > 72.9 µM | 67.6 µM | 70.6 µM | > 86.7 µM | 40 µM | 39.4 µM | 60.1 µM | 23.6 µM | – | – | – | – | – | 19.1 µM | – | – | – | –
CCc1nc(N)nc(N)c1-c1ccc([N+](C)(C)C)cc1 | > 100 µM | > 100 µM | > 100 µM | > 100 µM | > 100 µM | > 100 µM | > 100 µM | > 100 µM | > 100 µM | > 100 µM | – | – | – | – | – | – | – | – | – | –
COc1cc(/C=C/C(=O)Oc2ccc(NC(C)=O)cc2)ccc1C(=O)O/C=C/c1ccccc1 | > 100 µM | > 100 µM | > 100 µM | > 100 µM | > 100 µM | > 100 µM | > 100 µM | > 100 µM | – | > 100 µM | – | – | – | – | – | – | – | – | – | –
O=C1NI(C#Cc2ccccc2)c2ccccc21 | – | > 100 µM | > 100 µM | > 100 µM | – | > 100 µM | > 100 µM | > 100 µM | – | 88.9 µM | – | – | – | – | – | – | – | – | – | –
C[C@H]1C(=O)O[C@@H]2CCN3CC=C(COC(=O)[C@](C)(O)[C@@]1(C)O)[C@H]23 | > 100 µM | > 100 µM | > 100 µM | > 100 µM | > 100 µM | > 100 µM | > 100 µM | > 100 µM | > 100 µM | > 100 µM | – | – | – | – | – | – | – | – | – | –
COc1ccc(/C(Cl)=C(\C=O)c2ccc(OC)cc2)cc1 | > 100 µM | > 100 µM | – | > 100 µM | > 100 µM | – | > 100 µM | > 100 µM | > 100 µM | > 100 µM | – | – | – | – | – | – | – | – | – | –
Nc1n[nH]c(=O)c2c1c(I)cn2C1OC(CO)C(O)C1O (stereo not given) | 7.85 µM | 9.74 µM | 7.81 µM | 67.8 µM | 2.81 µM | – | 10.6 µM | 66.1 µM | > 100 µM | 4.12 µM | – | – | – | – | – | – | – | – | – | –
O=P1(c2ccccc2)Nc2ccccc2SSc2ccccc2N1 | 33.4 µM | 30.3 µM | 42.4 µM | 37.1 µM | 39.4 µM | 42.3 µM | 35.1 µM | 32.8 µM | – | 62.8 µM | – | – | – | – | – | – | – | – | – | –
O=C(Nc1ccc([N+](=O)[O-])cc1[N+](=O)[O-])C(=O)C(C(=O)c1ccc2ccccc2c1)C1OC(=O)c2ccccc21 (stereo not given) | 48 µM | 55.1 µM | 35 µM | 36.4 µM | 50.7 µM | – | 37.6 µM | 54.7 µM | 73.2 µM | 32.4 µM | – | – | – | – | – | – | – | – | – | –

Reference: PubChem BioAssay (NCI)
